In brackets after ≈: the same amount, converted by molar mass.
Columns and labels:
[1] = Stability in dog liver microsomes assessed as compound remaining at 5 uM in presence of NADPH after 30 mins by LC-MS/MS method; type: ADME, Canis lupus familiaris; settings: read-out: Stability
[2] = Stability in human liver microsomes assessed as compound remaining at 5 uM in presence of NADPH after 30 mins by LC-MS/MS method; type: ADME; settings: read-out: Stability
[3] = Stability in rat liver microsomes assessed as compound remaining at 5 uM in presence of NADPH after 30 mins by LC-MS/MS method; type: ADME; settings: read-out: Stability
[4] = Thermodynamic solubility in water at 5 mg incubated for 48 hrs by HPLC method; type: physicochemical; settings: read-out: Therm_solubility
[5] = Thermodynamic solubility in FaSSIF at pH 6.5 at 5 mg incubated for 48 hrs by HPLC method; type: physicochemical; settings: read-out: Therm_solubility

SMILES	remaining at 0.5 h, 5 µM [1]	remaining at 0.5 h, 5 µM [2]	remaining at 0.5 h, 5 µM [3]	solubility thermodynamic at 48 h [4]	solubility thermodynamic at 48 h [5]
COc1cc(N2CCc3nc(NC(=O)NCCc4cn(CC(F)F)cn4)sc3C2)cnc1Cl	84%	61%	100%	–	–
COc1cncc(N2CCc3nc(NC(C)=O)sc3C2)c1	–	–	–	12.1 µg/mL (≈ 39.8 µM)	9.4 µg/mL (≈ 30.9 µM)

— ChEMBL document CHEMBL3585282, “Discovery of Highly Isoform Selective Thiazolopiperidine Inhibitors of Phosphoinositide 3-Kinase γ” (J Med Chem, 2015)
